Values quoted from earlier work, collected in patent publication US11185497B2, “Intranasal delivery of dihydroergotamine by precision olfactory device” (Impel Neuropharma, Inc., priority 2018, dated 2021).

Conditions: in vivo

CN1C[C@H](C(=O)N[C@]2(C)O[C@@]3(O)[C@@H]4CCCN4C(=O)[C@H](Cc4ccccc4)N3C2=O)C[C@@H]2c3cccc4[nH]cc(c34)C[C@H]21 [DHE, Dihydroergotamine]
oral bioavailability: poor
